Our source for the Kd values is ChEMBL document CHEMBL3991601, “The target landscape of clinical kinase drugs” (Science, 2017).

In general, Kd refers to the equilibrium constant for the complex coming apart.

Structures are written as SMILES. Active and inactive are the calls of the source. Cut-off read from the data, not from the text of the source, for most assays here: actives have a measured Kd and inactives only a lower limit.

The target of test [1] is T1, Bone morphogenetic protein receptor type-2 (Homo sapiens, UniProt Q13873).
T1 sequence (Q13873 whole entry): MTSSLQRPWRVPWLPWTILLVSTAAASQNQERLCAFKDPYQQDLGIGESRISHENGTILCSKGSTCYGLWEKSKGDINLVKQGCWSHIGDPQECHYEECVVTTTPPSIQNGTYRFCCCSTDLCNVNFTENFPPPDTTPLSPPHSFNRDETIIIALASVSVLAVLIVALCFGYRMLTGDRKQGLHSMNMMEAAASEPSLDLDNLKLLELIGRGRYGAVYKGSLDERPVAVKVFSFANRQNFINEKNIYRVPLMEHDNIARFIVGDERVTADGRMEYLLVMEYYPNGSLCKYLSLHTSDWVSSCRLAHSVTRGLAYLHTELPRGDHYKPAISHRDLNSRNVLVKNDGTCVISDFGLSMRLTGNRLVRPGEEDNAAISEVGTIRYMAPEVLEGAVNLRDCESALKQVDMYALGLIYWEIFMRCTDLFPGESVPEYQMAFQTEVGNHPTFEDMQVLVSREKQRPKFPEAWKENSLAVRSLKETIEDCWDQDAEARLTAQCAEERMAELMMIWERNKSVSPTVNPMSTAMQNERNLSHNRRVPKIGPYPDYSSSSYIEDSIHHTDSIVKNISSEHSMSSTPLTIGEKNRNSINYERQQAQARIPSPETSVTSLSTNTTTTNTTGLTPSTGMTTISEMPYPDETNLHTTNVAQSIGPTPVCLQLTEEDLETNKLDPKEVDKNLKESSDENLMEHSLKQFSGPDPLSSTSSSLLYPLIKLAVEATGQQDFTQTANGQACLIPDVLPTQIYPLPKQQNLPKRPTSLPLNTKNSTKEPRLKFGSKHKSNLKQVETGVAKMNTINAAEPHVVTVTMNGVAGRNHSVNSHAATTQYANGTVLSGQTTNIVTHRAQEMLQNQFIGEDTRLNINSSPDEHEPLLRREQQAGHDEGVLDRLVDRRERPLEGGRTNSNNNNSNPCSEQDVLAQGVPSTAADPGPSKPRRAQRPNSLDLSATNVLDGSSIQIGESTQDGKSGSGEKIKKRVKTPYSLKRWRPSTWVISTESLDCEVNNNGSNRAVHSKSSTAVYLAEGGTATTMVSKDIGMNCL

Test [2] deals with T2, Tyrosine-protein kinase Tec (Homo sapiens, UniProt P42680).
T2 sequence (P42680 whole entry): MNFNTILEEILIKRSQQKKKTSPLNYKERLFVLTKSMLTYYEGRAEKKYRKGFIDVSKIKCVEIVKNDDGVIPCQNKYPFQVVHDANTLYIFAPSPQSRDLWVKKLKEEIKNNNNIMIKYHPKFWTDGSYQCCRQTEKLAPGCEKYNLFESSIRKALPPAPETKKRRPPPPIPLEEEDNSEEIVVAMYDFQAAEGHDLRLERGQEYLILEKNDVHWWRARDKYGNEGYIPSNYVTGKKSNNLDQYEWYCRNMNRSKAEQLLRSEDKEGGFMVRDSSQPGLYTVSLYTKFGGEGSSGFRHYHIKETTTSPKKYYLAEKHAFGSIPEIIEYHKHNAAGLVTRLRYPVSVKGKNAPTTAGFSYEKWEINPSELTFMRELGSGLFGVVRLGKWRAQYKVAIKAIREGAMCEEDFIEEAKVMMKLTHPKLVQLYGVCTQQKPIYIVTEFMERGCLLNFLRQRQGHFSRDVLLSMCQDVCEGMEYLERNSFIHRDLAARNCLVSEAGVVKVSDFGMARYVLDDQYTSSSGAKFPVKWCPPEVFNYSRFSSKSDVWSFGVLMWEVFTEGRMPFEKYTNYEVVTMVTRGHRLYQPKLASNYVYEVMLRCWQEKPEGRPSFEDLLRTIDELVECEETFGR

The target of test [3] is T3, ATP-dependent 6-phosphofructokinase, platelet type (Homo sapiens, UniProt Q01813).
T3 sequence (Q01813 whole entry): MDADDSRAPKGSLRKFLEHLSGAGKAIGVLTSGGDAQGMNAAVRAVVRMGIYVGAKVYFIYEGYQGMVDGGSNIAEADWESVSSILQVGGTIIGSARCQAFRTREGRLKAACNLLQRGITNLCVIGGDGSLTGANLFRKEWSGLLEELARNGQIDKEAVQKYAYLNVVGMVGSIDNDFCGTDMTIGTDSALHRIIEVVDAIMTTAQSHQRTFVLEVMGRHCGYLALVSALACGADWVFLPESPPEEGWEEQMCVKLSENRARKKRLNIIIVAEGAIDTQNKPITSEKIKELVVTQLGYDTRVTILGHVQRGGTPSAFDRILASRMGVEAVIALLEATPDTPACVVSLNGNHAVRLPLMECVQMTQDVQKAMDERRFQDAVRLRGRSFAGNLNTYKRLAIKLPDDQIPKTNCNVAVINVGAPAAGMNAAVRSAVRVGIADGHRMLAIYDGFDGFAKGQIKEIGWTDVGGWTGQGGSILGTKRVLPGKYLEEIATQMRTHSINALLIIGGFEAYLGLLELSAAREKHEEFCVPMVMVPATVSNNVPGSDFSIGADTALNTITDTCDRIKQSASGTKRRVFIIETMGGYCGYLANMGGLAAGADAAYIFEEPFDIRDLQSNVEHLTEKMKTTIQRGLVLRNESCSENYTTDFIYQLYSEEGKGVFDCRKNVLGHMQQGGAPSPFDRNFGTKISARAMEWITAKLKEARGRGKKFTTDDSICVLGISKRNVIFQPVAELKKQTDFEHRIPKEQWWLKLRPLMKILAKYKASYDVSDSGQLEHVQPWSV

Test [4] concerns the target Tyrosine-protein kinase Lyn (Homo sapiens, UniProt P07948).
The target in test [5] is Casein kinase I isoform epsilon (Homo sapiens, UniProt P49674).
Note: in the data inactive means no Kd found up to 30 µM.

Sequence of Tyrosine-protein kinase Lyn (P07948 whole entry, canonical isoform): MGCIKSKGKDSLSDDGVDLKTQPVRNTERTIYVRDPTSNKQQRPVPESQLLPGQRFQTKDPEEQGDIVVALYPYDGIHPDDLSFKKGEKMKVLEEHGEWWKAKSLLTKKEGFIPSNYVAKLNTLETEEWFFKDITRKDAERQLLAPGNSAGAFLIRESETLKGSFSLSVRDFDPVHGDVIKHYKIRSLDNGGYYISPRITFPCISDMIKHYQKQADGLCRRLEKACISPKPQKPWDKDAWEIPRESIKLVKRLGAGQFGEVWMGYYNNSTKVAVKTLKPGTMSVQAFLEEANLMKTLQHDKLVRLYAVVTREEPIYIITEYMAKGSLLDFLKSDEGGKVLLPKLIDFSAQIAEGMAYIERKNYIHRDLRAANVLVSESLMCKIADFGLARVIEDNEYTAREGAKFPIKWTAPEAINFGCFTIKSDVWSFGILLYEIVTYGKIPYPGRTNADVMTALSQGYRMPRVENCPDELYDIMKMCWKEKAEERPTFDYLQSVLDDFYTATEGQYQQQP
Sequence of Casein kinase I isoform epsilon (P49674 whole entry, canonical isoform): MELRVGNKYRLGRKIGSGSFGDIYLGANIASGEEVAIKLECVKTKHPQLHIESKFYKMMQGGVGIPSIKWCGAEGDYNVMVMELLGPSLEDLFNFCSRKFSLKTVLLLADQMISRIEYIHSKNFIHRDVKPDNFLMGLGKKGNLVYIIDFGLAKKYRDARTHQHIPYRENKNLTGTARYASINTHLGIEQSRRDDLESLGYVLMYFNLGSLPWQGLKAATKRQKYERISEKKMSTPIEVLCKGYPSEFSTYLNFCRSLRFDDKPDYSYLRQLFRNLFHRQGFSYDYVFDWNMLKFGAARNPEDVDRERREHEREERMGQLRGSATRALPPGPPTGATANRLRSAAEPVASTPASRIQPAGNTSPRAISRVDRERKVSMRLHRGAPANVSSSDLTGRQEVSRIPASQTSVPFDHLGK

As to `CC[C@@H]1C(=O)N(C)c2cnc(Nc3ccc(C(=O)N[C@H]4CC[C@H](N5CCN(CC6CC6)CC5)CC4)cc3OC)nc2N1C(C)C` [VOLASERTIB], the Kd in test [1], in test [2], in test [3], in test [4] and in test [5] was > 30 µM (inactive) throughout.
Regarding `Cc1ccc(S(=O)(=O)Nc2nc3ccccc3nc2Nc2ccc3nsnc3c2)cc1`, the Kd in test [1], in test [2], in test [3], in test [4] and in test [5] was > 30 µM (inactive) in each case.
For the molecule `Cn1cc(-c2ccc(F)c(C(F)(F)F)c2)nc1C1CCN(c2ncnc3[nH]ncc23)CC1` [LY-2584702], the Kd in test [1], in test [2], in test [3], in test [4] and in test [5] was > 30 µM (inactive) each time.
Take `COc1cc(OC)c(/C=C/S(=O)(=O)Cc2ccc(OC)c(NCC(=O)O)c2)c(OC)c1` [RIGOSERTIB]: the Kd in test [1], in test [2], in test [3], in test [4] and in test [5] was > 30 µM (inactive) in each case.
Regarding `CCn1c(=O)c(-c2cc[nH]n2)cc2c(C)nc(N)nc21` [VOXTALISIB], the Kd in test [1], in test [2], in test [3], in test [4] and in test [5] was > 30 µM (inactive) throughout.
As for `OCCn1cc(-c2cnc3nnn(Cc4ccc5ncccc5c4)c3n2)cn1` [PF-04217903], the Kd in test [1], in test [2], in test [3], in test [4] and in test [5] was > 30 µM (inactive) each time.
Regarding `CO[C@H]1C[C@@H]2CC[C@@H](C)[C@@](O)(O2)C(=O)C(=O)N2CCCC[C@H]2C(=O)O[C@H]([C@H](C)C[C@@H]2CC[C@@H](OCCO)[C@H](OC)C2)CC(=O)[C@H](C)/C=C(\C)[C@@H](O)[C@@H](OC)C(=O)[C@H](C)C[C@H](C)/C=C/C=C/C=C/1C` [EVEROLIMUS], the Kd in test [1], in test [2], in test [3], in test [4] and in test [5] was > 30 µM (inactive) in each case.
Consider `CCCS(=O)(=O)Nc1ccc(F)c(C(=O)c2c[nH]c3ncc(-c4ccc(Cl)cc4)cc23)c1F` [VEMURAFENIB], for which the Kd in test [1], in test [2], in test [3], in test [4] and in test [5] was > 30 µM (inactive) in each case.
For the molecule `O=C(Nc1ccc(-c2ccnc(Nc3ccc(N4CCOCC4)cc3)n2)cc1)C1CCCN1` (stereo not given) [XL-019], the Kd in test [1], in test [2], in test [3], in test [4] and in test [5] was > 30 µM (inactive) throughout.
For `Cn1ncc(Cl)c1-c1cc(C(=O)N[C@H](CN)Cc2cccc(F)c2)sc1Cl` [AFURESERTIB], the Kd in test [1], in test [2], in test [3], in test [4] and in test [5] was > 30 µM (inactive) in each case.
Take `CNC(=O)CN1CCC(Oc2cc3c(Nc4cccc(Cl)c4F)ncnc3cc2OC)CC1` [SAPITINIB]: the Kd in test [1] was > 30 µM (inactive); in test [2] it was > 30 µM (inactive); in test [3] it was > 30 µM (inactive); in test [4] it was 2.48 µM (active); in test [5], > 30 µM (inactive).
As to `CCn1c(-c2nonc2N)nc2c(C#CC(C)(C)O)ncc(OC[C@H]3CCCNC3)c21` [GSK-690693], the Kd in test [3] was > 30 µM (inactive).
With `Cc1cc(Nc2cc(N3CCN(C)CC3)nc(/C=C/c3ccccc3)n2)n[nH]1` [ENMD-2076], the Kd in test [2], in test [3], in test [4] and in test [5] was > 30 µM (inactive) each time.
In the case of `CNC(=O)c1ccc(-c2cnc3ncc(Cc4ccc5ncccc5c4)n3n2)cc1F` [CAPMATINIB], the Kd in test [1], in test [2], in test [4] and in test [5] was > 30 µM (inactive) each time.
As for `Nc1nc(N)c2nc(-c3cccc(O)c3)c(-c3cccc(O)c3)nc2n1` [TG100-115], the Kd in test [3] is > 30 µM (inactive).
On the same count and under the same terms, the same measure for `CN1CCN(c2ccc3nc(-c4c(N)c5c(F)cccc5[nH]c4=O)[nH]c3c2)CC1` [DOVITINIB]: > 30 µM (inactive).
Regarding `COc1cc2nccc(Oc3ccc(NC(=O)NC4CC4)c(Cl)c3)c2cc1C(N)=O` [LENVATINIB], the Kd in test [1], in test [2], in test [3] and in test [4] was > 30 µM (inactive) throughout.
As for `COc1cc2nccc(Oc3ccc(NC(=O)Nc4cc(C)on4)c(Cl)c3)c2cc1OC` [TIVOZANIB], the Kd in test [1] was > 30 µM (inactive); in test [2], > 30 µM (inactive); in test [3], > 30 µM (inactive); in test [4], 2.02 µM (active).
Consider `Cc1nc(N)sc1-c1ccnc(Nc2ccc(N3CCOCC3)cc2)n1` [CYC-116], for which the results for the Kd in test [3] and in test [5] were > 30 µM (inactive) and 0.841 µM (active), respectively.
As to `Cc1ccc(NC(=O)c2ccc(CN3CC[C@H](N(C)C)C3)c(C(F)(F)F)c2)cc1Nc1nccc(-c2cncnc2)n1` [BAFETINIB], the Kd in test [1] is > 30 µM (inactive); in test [2], > 30 µM (inactive); in test [4] it was 0.239 µM (active); in test [5], > 30 µM (inactive).
As to `COCCNCc1ccc(-c2cc3nccc(Oc4ccc(NC(=S)NC(=O)Cc5ccc(F)cc5)cc4F)c3s2)nc1` [GLESATINIB], the Kd in test [1], in test [2], in test [3] and in test [5] was > 30 µM (inactive) throughout.
As to `Cc1cn(-c2cc(NC(=O)c3ccc(C)c(Nc4nccc(-c5cccnc5)n4)c3)cc(C(F)(F)F)c2)cn1` [NILOTINIB], in test [3], the Kd was > 30 µM (inactive).
